Experimental data published in publication PMC6979384, “Characterization of the plant homeodomain (PHD) reader family for their histone tail interactions” (Epigenetics & Chromatin, 2020).

Key:
Assay in all cases: Histone peptide microarray
Type in all cases: binding, human
AIRE (PP) = conditions: sheet "Array Heatmap"; GST-tagged AIRE (PP); arrays performed twice, total replicate number n = 4
Method in brief: (§1)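 A peptide microarray holding 293 synthetic histone peptides with individual or combinatorial modifications was probed with each GST-PHD protein at 0.5 μM. Values represent mean intensity (±SD) from four replicates.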

BAZ2B = conditions: sheet "Array Heatmap"; GST-tagged BAZ2B; arrays performed twice, total replicate number n = 4
Method in brief: as §1

BPTF (PB) = conditions: sheet "Array Heatmap"; GST-tagged BPTF (PB); arrays performed twice, total replicate number n = 4
Method in brief: as §1

CHD4 (PPCC) = conditions: sheet "Array Heatmap"; GST-tagged CHD4 (PPCC); arrays performed twice, total replicate number n = 4
Method in brief: as §1

CHD5 (PCC) = conditions: sheet "Array Heatmap"; GST-tagged CHD5 (PCC); arrays performed twice, total replicate number n = 4
Method in brief: as §1

CHD5 (PPCC) = conditions: sheet "Array Heatmap"; GST-tagged CHD5 (PPCC); arrays performed twice, total replicate number n = 4
Method in brief: as §1

DIDO1 = conditions: sheet "Array Heatmap"; GST-tagged DIDO1; arrays performed twice, total replicate number n = 4
Method in brief: as §1

DPF2 (PPC2W2) = conditions: sheet "Array Heatmap"; GST-tagged DPF2 (PPC2W2); arrays performed twice, total replicate number n = 4
Method in brief: as §1

ING1 = conditions: sheet "Array Heatmap"; GST-tagged ING1; arrays performed twice, total replicate number n = 4
Method in brief: as §1

ING2 = conditions: sheet "Array Heatmap"; GST-tagged ING2; arrays performed twice, total replicate number n = 4
Method in brief: as §1

ING3 = conditions: sheet "Array Heatmap"; GST-tagged ING3; arrays performed twice, total replicate number n = 4
Method in brief: as §1

ING4 = conditions: sheet "Array Heatmap"; GST-tagged ING4; arrays performed twice, total replicate number n = 4
Method in brief: as §1

ING5 = conditions: sheet "Array Heatmap"; GST-tagged ING5; arrays performed twice, total replicate number n = 4
Method in brief: as §1

KDM4C (TTP) = conditions: sheet "Array Heatmap"; GST-tagged KDM4C (TTP); arrays performed twice, total replicate number n = 4
Method in brief: as §1

KDM5A (1) = conditions: sheet "Array Heatmap"; GST-tagged KDM5A (1); arrays performed twice, total replicate number n = 4
Method in brief: as §1

KDM5A (3) = conditions: sheet "Array Heatmap"; GST-tagged KDM5A (3); arrays performed twice, total replicate number n = 4
Method in brief: as §1

KDM5B (1) = conditions: sheet "Array Heatmap"; GST-tagged KDM5B (1); arrays performed twice, total replicate number n = 4
Method in brief: as §1

KDM5B (3) = conditions: sheet "Array Heatmap"; GST-tagged KDM5B (3); arrays performed twice, total replicate number n = 4
Method in brief: as §1

KDM7A = conditions: sheet "Array Heatmap"; GST-tagged KDM7A; arrays performed twice, total replicate number n = 4
Method in brief: as §1

MLL5 = conditions: sheet "Array Heatmap"; GST-tagged MLL5; arrays performed twice, total replicate number n = 4
Method in brief: as §1

MORC3 (CW) = conditions: sheet "Array Heatmap"; GST-tagged MORC3 (CW); arrays performed twice, total replicate number n = 4
Method in brief: as §1

PHF13 = conditions: sheet "Array Heatmap"; GST-tagged PHF13; arrays performed twice, total replicate number n = 4
Method in brief: as §1

PHF21A = conditions: sheet "Array Heatmap"; GST-tagged PHF21A; arrays performed twice, total replicate number n = 4
Method in brief: as §1

PHF23 = conditions: sheet "Array Heatmap"; GST-tagged PHF23; arrays performed twice, total replicate number n = 4
Method in brief: as §1

PHF2 = conditions: sheet "Array Heatmap"; GST-tagged PHF2; arrays performed twice, total replicate number n = 4
Method in brief: as §1

PHF8 = conditions: sheet "Array Heatmap"; GST-tagged PHF8; arrays performed twice, total replicate number n = 4
Method in brief: as §1

PHRF1 (RP) = conditions: sheet "Array Heatmap"; GST-tagged PHRF1 (RP); arrays performed twice, total replicate number n = 4
Method in brief: as §1

RAG2 = conditions: sheet "Array Heatmap"; GST-tagged RAG2; arrays performed twice, total replicate number n = 4
Method in brief: as §1

SP140L = conditions: sheet "Array Heatmap"; GST-tagged SP140L; arrays performed twice, total replicate number n = 4
Method in brief: as §1

TAF3 = conditions: sheet "Array Heatmap"; GST-tagged TAF3; arrays performed twice, total replicate number n = 4
Method in brief: as §1

TRIM66 (PB) = conditions: sheet "Array Heatmap"; GST-tagged TRIM66 (PB); arrays performed twice, total replicate number n = 4
Method in brief: as §1

## H3R8me2s + K9me3: H3 1-20
AIRE (PP)
  Array Heatmap signal, AIRE (PP): 0.6619
BAZ2B
  Array Heatmap signal, BAZ2B: 0.5401
BPTF (PB)
  Array Heatmap signal, BPTF (PB): 0.4039
CHD4 (PPCC)
  Array Heatmap signal, CHD4 (PPCC): 0.6275
CHD5 (PCC)
  Array Heatmap signal, CHD5 (PCC): 0.8709
CHD5 (PPCC)
  Array Heatmap signal, CHD5 (PPCC): 0.6469
DIDO1
  Array Heatmap signal, DIDO1: 0.7617
DPF2 (PPC2W2)
  Array Heatmap signal, DPF2 (PPC2W2): 0.784
ING1
  Array Heatmap signal, ING1: 0.6071
ING2
  Array Heatmap signal, ING2: 0.6159
ING3
  Array Heatmap signal, ING3: 0.5417
ING4
  Array Heatmap signal, ING4: 0.5372
ING5
  Array Heatmap signal, ING5: 0.4272
KDM4C (TTP)
  Array Heatmap signal, KDM4C (TTP): 0.5668
KDM5A (1)
  Array Heatmap signal, KDM5A (1): 0.5383
KDM5A (3)
  Array Heatmap signal, KDM5A (3): 0.5266
KDM5B (1)
  Array Heatmap signal, KDM5B (1): 0.6697
KDM5B (3)
  Array Heatmap signal, KDM5B (3): 0.5509
KDM7A
  Array Heatmap signal, KDM7A: 0.3933
MLL5
  Array Heatmap signal, MLL5: 0.5932
MORC3 (CW)
  Array Heatmap signal, MORC3 (CW): 0.4796
PHF13
  Array Heatmap signal, PHF13: 0.7048
PHF21A
  Array Heatmap signal, PHF21A: 0.5424
PHF23
  Array Heatmap signal, PHF23: 0.594
PHF2
  Array Heatmap signal, PHF2: 0.5404
PHF8
  Array Heatmap signal, PHF8: 0.4276
PHRF1 (RP)
  Array Heatmap signal, PHRF1 (RP): 0.5937
RAG2
  Array Heatmap signal, RAG2: 0.2769
SP140L
  Array Heatmap signal, SP140L: 0.3989
TAF3
  Array Heatmap signal, TAF3: 0.3134
TRIM66 (PB)
  Array Heatmap signal, TRIM66 (PB): 0.7482
